From patent US11066369B2, “N-(pyridin-2-yl)pyridine-sulfonamide derivatives and their use in the treatment of disease” (Novartis AG, priority 2016, dated 2021)
Where a name gives a salt, the structure may show the parent alone. Read-outs that look alike come from different tables or passages of the source.

What was measured:
[1] = biological target: T1, horseradish peroxidase (HRP) tagged delF508-CFTR (Homo sapiens, UniProt P13569, DEL508-508); test: Measurement of delF508-CFTR-HRP surface expression in CFBE41o- cells; type: cell-based; conditions: for Emax: read-out: DelF508-CFTR-HRP Amax %;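 on DelF508-CFTR-HRP Amax %: percent efficacy relative to reference corrector lumacaftor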
T1 construct: expressed in transfected cells
T1 sequence (P13569 with tags, fused parts or gaps DEL508-508): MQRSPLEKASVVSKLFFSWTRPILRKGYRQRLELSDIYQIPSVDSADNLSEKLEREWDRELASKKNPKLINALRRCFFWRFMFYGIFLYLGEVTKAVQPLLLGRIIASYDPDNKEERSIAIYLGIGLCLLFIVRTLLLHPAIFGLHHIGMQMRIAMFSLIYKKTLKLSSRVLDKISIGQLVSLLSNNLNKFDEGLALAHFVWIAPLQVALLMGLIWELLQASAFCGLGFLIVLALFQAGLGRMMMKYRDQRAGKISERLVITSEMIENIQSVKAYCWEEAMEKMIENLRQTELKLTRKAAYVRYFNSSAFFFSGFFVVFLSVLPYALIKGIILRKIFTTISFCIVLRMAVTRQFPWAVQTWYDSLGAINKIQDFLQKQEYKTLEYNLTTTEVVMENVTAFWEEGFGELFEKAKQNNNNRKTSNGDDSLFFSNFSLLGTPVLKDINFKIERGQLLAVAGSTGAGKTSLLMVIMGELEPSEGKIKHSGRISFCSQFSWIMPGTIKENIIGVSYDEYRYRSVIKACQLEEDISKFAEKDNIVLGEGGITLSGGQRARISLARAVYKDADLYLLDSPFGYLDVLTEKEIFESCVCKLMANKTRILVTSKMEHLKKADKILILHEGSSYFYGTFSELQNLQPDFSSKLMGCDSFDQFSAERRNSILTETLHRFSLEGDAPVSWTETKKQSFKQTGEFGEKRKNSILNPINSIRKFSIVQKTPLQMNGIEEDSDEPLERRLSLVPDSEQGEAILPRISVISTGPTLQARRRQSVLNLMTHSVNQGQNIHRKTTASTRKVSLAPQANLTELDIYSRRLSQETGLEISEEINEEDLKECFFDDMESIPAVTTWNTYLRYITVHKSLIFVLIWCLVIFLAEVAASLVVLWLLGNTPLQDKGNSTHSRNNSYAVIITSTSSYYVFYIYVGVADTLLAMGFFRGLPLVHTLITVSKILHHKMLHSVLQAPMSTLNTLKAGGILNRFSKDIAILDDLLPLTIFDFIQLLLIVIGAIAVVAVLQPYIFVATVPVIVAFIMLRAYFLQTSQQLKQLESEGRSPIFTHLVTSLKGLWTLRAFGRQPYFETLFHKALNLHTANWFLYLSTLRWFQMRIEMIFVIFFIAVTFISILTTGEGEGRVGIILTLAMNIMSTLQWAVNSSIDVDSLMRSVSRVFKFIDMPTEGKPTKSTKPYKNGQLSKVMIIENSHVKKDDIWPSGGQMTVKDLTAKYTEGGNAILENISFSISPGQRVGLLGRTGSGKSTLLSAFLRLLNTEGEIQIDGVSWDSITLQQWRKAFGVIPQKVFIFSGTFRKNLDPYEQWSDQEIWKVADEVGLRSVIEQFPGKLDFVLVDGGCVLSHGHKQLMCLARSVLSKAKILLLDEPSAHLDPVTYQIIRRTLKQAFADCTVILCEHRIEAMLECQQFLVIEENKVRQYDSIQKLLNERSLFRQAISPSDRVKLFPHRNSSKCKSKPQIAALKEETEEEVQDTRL
In short: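 Surface-trafficked delF508-CFTR detected via extracellular HRP tag, read as luminescence from a membrane-impermeant substrate in CFBE41o- cells. Cells pre-induced 48h with 500 ng/mL doxycycline, then exposed 24h at 37° C to a 10-point, 3-fold dilution series from 10 μM (DMSO ≤0.5%). Triplicate dose-responses fitted logistically for EC50 after per-plate normalization; fold change versus reference compound.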

[2] = biological target: T2, delF508-CFTR (Homo sapiens, UniProt P13569, DEL508-508); test: Measurement of delF508-CFTR functional activity in primary human bronchial epithelial cells (HBECs) using Multi-Transepithelial Clamp Circuit (MTECC-24) assay; type: cell-based; conditions: primary CF HBECs; for MTECC24 CFHBEC- Amax %: test compound added 24h before assay plus potentiator, relative to reference combination (2 μM corrector + 0.5 μM potentiator); for EC50: test compound added 24h before assay, in the presence of potentiator, mean of at least two replicates, read-out: MTECC24 CFHBEC- EC50
T2 construct: functional activity of the CFTR channel (Chloride ion transport) in patient derived primary human bronchial epithelial cells; host or cells: patient-derived primary human bronchial epithelial cells (delF508-CFTR)
T2 sequence (P13569 with tags, fused parts or gaps DEL508-508): as above
Text: [formula] Measurement of delF508-CFTR Functional Activity in Primary Human Bronchial Epithelial Cells (HBECs) Using Multi-Transepithelial Clamp Circuit (MTECC-24) Assay
This assay measures the functional activity of the CFTR channel (Chloride ion transport) in patient derived primary human bronchial epithelial cells with forskolin activation and in the presence of the CFTR corrector/potentiator combo.
Primary human delF508-CFTR bronchial epithelial cells were purchased from Asterand and cultured according to previously established methods (Fulcher et al. (2005) Methods Mol Med 107: 183-206). Briefly, vendor supplied cells were rapidly defrosted and added to a T175 flask in 50 mL growth media (Lonza BEBM media with Lonza BEGM singlequots). Media was replaced after 24h and then cells were fed every other day until cells were 80-90% confluent, at which point cells were cryopreserved. These P1 vials were thawed at 37° C. as needed and added to T175 flasks in 50 mL growth media at 5×10^5 cells/flask. Media was replaced after 24h, and then cells were fed every other day until 80-90% confluent. Cells were lifted with 5 mL accutase at 37° C. for 5 minutes, centrifuged at 1000 rpms for 5 min (300 g), and resuspended in differentiation media (50% BEBM in DMEM, BEGM singlequots, all trans retinoic acid (5×10^−8M)). Cells were then counted and cell suspension was added to collagen coated inserts at 3×10^4 cells/insert in 0.15 mL with 0.5 mL differentiation media on the basolateral side.
Apical and basolateral media were replaced on alternate days, and following day 7 (or when confluent plus 2 days), air liquid interface was established for approximately two weeks by removal of apical media. One day prior to use on the MTECC24 system (EP-Devices, EP Design, Belgium), 0.15 mL of warmed (37° C.) PBS was added to the apical surface of the cultures and returned to humidifier (37° C., 5% CO2 incubator) for 30 min before aspirating the apical surface to remove any mucus.
Compound treatments were then prepared. Compound dilutions, typically a 10 point concentration response with 1 in 3 dilution steps, were made in 100% DMSO before dilution 1 in 1000 into differentiation medium with a final DMSO concentration of 0.1% or 0.2% for the study. Compound containing medium was then transferred into the wells of a 24 well plate at 0.5 mL per well and warmed for 30 min in a 37° C. incubator prior to transferring washed inserts into the compound containing plates. Cells were incubated in compound containing medium (basolateral only) for 24h prior to measurement in the MTECC24 system.
Following 24 hr treatment, compound dilutions were prepared again, diluted 1 in 1000 into 37° C. assay medium (F-12 Coon's modified, 20 mM HEPES pH7.4 with TRIS Base, No FCS or bicarbonate). Cells which were treated for 24h with test compound were then transferred into plates containing 0.75 mL compound treatment in assay medium (basolateral) and 0.25 mL of the compound containing assay medium was added to the apical surface. The plates were then transferred to the heated plate compartments of the MTECC24 system for 45 min prior to measurements (this can also be done in a non-CO2 37° C. humidified incubator). Basolateral temperature should not exceed 36.5° C. and apical temperature should be approximately 35.5° C.
Modulators were added sequentially as follows while the MTECC24 instrument recorded the equivalent short circuit current (Ieq):
Prior to dilution into F-12 medium the stocks are as follows:
Amiloride stock is 10 mM in H2O
Forskolin Stock is 10 mM in 100% DMSO
(S)-3-amino-6-methoxy-N-(3,3,3-trifluoro-2-hydroxy-2-methylpropyl)-5-(trifluoromethyl)picolinamide is 0.5 mM stock in 100% DMSO
INH-172 (4-[[4-Oxo-2-thioxo-3-[3-trifluoromethyl)phenyl]-5-thiazolidinylidene]methyl]benzoic acid) stock is 30 mM in 100% DMSO
The data was normalized using the median signal from wells treated with 0.1% DMSO as a baseline. […]

[3] = delF508-CFTR-HRP surface expression, CFBE41o- cells
[4] = delF508-CFTR-HRP surface expression, CFBE41o- cells, read-out: DelF508-CFTR-HRP EC50
[5] = CFBE41o- cells, mean of at least two replicates, read-out: DelF508-CFTR-HRP EC50
[6] = CFBE41o- cells, surface expression Amax

Row | Structure (SMILES) | Emax [1, 3] | EC50 [1, 4] | MTECC24 CFHBEC- Amax % [2] | EC50 [2] | EC50 [1, 5] | Emax [1, 6] | EC50 [1] | Emax ([1]; CFBE41o-)
1 | Cc1ccc(C#N)cc1-c1nc(NS(=O)(=O)c2cccc(N3CCNCC3)n2)ccc1C(F)(F)F [Example 311, N-(6-(5-cyano-2-methylphenyl)-5-(trifluoromethyl)pyridin-2-yl)-6-(piperazin-1-yl)pyridine-2-sulfonamide] | 179% | 3270 nM | 61.7% | 220 nM |  |  |  | 
2 | Cc1ccccc1-c1nc(NS(=O)(=O)c2cccc(N[C@@H]3COCC[C@@H]3O)n2)ccc1C(F)(F)F (racemic) [Example 280, rac-6-{[(3RS,4SR)-4-hydroxyoxan-3-yl]amino}-N-[6-(2-methylphenyl)-5-(trifluoromethyl)pyridin-2-yl]pyridine-2-sulfonamide] | 844% | 1960 nM | 96.3% | 2.5 nM |  |  |  | 
3 | Cc1c(F)cccc1-c1nc(NS(=O)(=O)c2cccc(N3CCC(C)(C(=O)O)CC3)n2)ccc1C(F)(F)F [Example 263, 1-(6-(N-(6-(3-fluoro-2-methylphenyl)-5-(trifluoromethyl)pyridin-2-yl)sulfamoyl)pyridin-2-yl)-4-methylpiperidine-4-carboxylic Acid] | 481% | 2870 nM | 54.4% | 8.3 nM |  |  |  | 
4 | Cc1ccccc1-c1nc(NS(=O)(=O)c2cccc(N3C4CCCC3CC(C(=O)O)C4)n2)ccc1C(F)(F)F (stereo not shown) [Example 345, 9-(6-{[6-(2-methylphenyl)-5-(trifluoromethyl)pyridin-2-yl]sulfamoyl}pyridin-2-yl)-9-azabicyclo[3.3.1]nonane-3-carboxylic Acid] |  |  | 90.4% | 41.5 nM |  |  | 1330 nM | 557%
5 | Cc1ccccc1-c1nc(NS(=O)(=O)c2cccc(N[C@@H]3CCOC[C@@H]3O)n2)ccc1C(F)(F)F (racemic) [Example 275, rac-6-{[(3RS,4RS)-3-hydroxyoxan-4-yl]amino}-N-[6-(2-methylphenyl)-5-(trifluoromethyl)pyridin-2-yl]pyridine-2-sulfonamide] |  | 1070 nM | 77.9% | 1.5 nM |  |  |  | 
6 | Nc1cccc(S(=O)(=O)Nc2ccc(Cl)c(-c3ccccc3C(F)(F)F)n2)n1 [Example 55, 6-amino-N-(5-chloro-6-(2-(trifluoromethyl)phenyl)pyridin-2-yl)pyridine-2-sulfonamide] | 305% | 1700 nM | 86.7% | 15.5 nM |  |  |  | 
7 | Cc1c(F)cccc1-c1nc(NS(=O)(=O)c2cccc(N)n2)ccc1C(F)(F)F [Example 7, 6-amino-N-(6-(3-fluoro-2-methylphenyl)-5-(trifluoromethyl)pyridin-2-yl)pyridine-2-sulfonamide] | 610% | 1630 nM | 66.8% | 2.7 nM |  |  |  | 
8 | Cc1ccc(Cl)cc1-c1nc(NS(=O)(=O)c2cccc(N3CCC(C)(C(=O)O)CC3)n2)ccc1C(F)(F)F [Example 451, 1-(6-(N-(6-(5-chloro-2-methylphenyl)-5-(trifluoromethyl)pyridin-2-yl)sulfamoyl)pyridin-2-yl)-4-methylpiperidine-4-carboxylic Acid] |  |  |  |  | 2680 nM | 847% |  | 
9 | CC1(C(=O)O)CCN(c2cc(S(=O)(=O)Nc3ccc(C(F)(F)F)c(-c4ccccc4C4CCC4)n3)ccn2)CC1 [Example 378, 1-(4-(N-(6-(2-cyclobutylphenyl)-5-(trifluoromethyl)pyridin-2-yl)sulfamoyl)pyridin-2-yl)-4-methylpiperidine-4-carboxylic Acid] |  |  |  |  | 1360 nM | 272% |  | 

The next lines start with results.

Row | Emax [1, 3] | EC50 [1, 4] | MTECC24 CFHBEC- Amax % [2] | EC50 [2] | EC50 [1, 5] | Emax [1, 6] | Structure (SMILES) | EC50 [1] | Emax ([1]; CFBE41o-)
10 | 943% | 1730 nM | 90.6% | 5.7 nM |  |  | Cc1ccccc1-c1nc(NS(=O)(=O)c2cccc(N3CC(O)(C(F)(F)F)C3)n2)ccc1C(F)(F)F [Example 204, 6-(3-hydroxy-3-(trifluoromethyl)azetidin-1-yl)-N-(6-(o-tolyl)-5-(trifluoromethyl)pyridin-2-yl)pyridine-2-sulfonamide] |  | 
11 | 577% | 3280 nM | 54.3% | 136 nM |  |  | Cc1ccccc1-c1nc(NS(=O)(=O)c2cccc(N3CCC[C@@H](N)C3)n2)ccc1C(F)(F)F [Example 102, (R)-6-(3-aminopiperidin-1-yl)-N-(6-(o-tolyl)-5-(trifluoromethyl)pyridin-2-yl)pyridine-2-sulfonamide Hydrochloride] |  | 
12 | 505% | 2730 nM | 66.2% | 118 nM |  |  | Cc1ccccc1-c1nc(NS(=O)(=O)c2cccc(N3CCNC[C@H]3C)n2)ccc1C(F)(F)F [Example 171, (R)-6-(2-methylpiperazin-1-yl)-N-(6-(o-tolyl)-5-(trifluoromethyl)pyridin-2-yl)pyridine-2-sulfonamide Hydrochloride] |  | 
13 |  |  | 59.5% | 31.8 nM |  |  | Cc1ccccc1-c1nc(NS(=O)(=O)c2cccc(N3CC[C@@H](N)[C@@H](F)C3)n2)ccc1C(F)(F)F [Example 111, 6-((3S,4R)-4-amino-3-fluoropiperidin-1-yl)-N-(6-(o-tolyl)-5-(trifluoromethyl)pyridin-2-yl)pyridine-2-sulfonamide Hydrochloride] |  | 
14 | 218% | 1520 nM | 67.4% | 64.9 nM |  |  | Cc1ccccc1-c1nc(NS(=O)(=O)c2cccc(OC3CC(C(=O)O)C3)n2)ccc1C(F)(F)F (mixture of isomers) [Example 331, 3-((6-(N-(6-(o-tolyl)-5-(trifluoromethyl)pyridin-2-yl)sulfamoyl)pyridin-2-yl)oxy)cyclobutanecarboxylic Acid] |  | 
15 | 491% | 3170 nM | 65.5% | 71.7 nM |  |  | Cc1ccccc1-c1nc(NS(=O)(=O)c2cccc(N3CC4(C3)OCCC4N)n2)ccc1C(F)(F)F (stereo not shown) [Example 303, 6-(8-amino-5-oxa-2-azaspiro[3.4]octan-2-yl)-N-(6-(o-tolyl)-5-(trifluoromethyl)pyridin-2-yl)pyridine-2-sulfonamide] |  | 
16 | 520% | 2300 nM |  |  |  |  | Cc1ccccc1-c1nc(NS(=O)(=O)c2cccc(N)n2)ccc1C(F)(F)F [Example 15, 6-amino-N-(6-(o-tolyl)-5-(trifluoromethyl)pyridin-2-yl)pyridine-2-sulfonamide] |  | 
